Only the 19 paired bases of each siRNA are shown; overhangs and chemistry are not given here.
How the values were obtained:
Test in all cases: five studies, different assays
Details in all cases: siRNA
Renilla luciferase = molecular target: Renilla luciferase
GAPDH = molecular target: GAPDH
PTEN = molecular target: PTEN
[1] = molecular target: placental-type alkaline phosphatase
Further: test concentration or dose not given here.

sense UCUACGUGCAAGUGAUGAU / antisense AUCAUCACUUGCACGUAGA
target inhibition (Renilla luciferase): 89.5%

sense GCACCACCAACUGCUUAGC / antisense GCUAAGCAGUUGGUGGUGC
target inhibition (GAPDH): 38.6%

sense GCUACAGUUAUUAAUCUGG / antisense CCAGAUUAAUAACUGUAGC
target inhibition (PTEN): 37%

sense CUUCAUAGCGCACGUCAUG / antisense CAUGACGUGCGCUAUGAAG
target inhibition [1]: 16.5%

sense AAGGACUCAUGACCACAGU / antisense ACUGUGGUCAUGAGUCCUU
target inhibition (GAPDH): -17.4%

sense UUACCAGUUAUAGGAACAA / antisense UUGUUCCUAUAACUGGUAA
target inhibition (PTEN): 40%

sense GAAUUUGCAGCAUAUCUUG / antisense CAAGAUAUGCUGCAAAUUC
target inhibition (Renilla luciferase): 84.8%

sense AUACAGGAACAAUAUUGAU / antisense AUCAAUAUUGUUCCUGUAU
target inhibition (PTEN): 49%

sense CUCAGAAAGGAAAUAAUUU / antisense AAAUUAUUUCCUUUCUGAG
target inhibition (PTEN): 30%

sense ACCAUCUCCAGCUAUUUAC / antisense GUAAAUAGCUGGAGAUGGU
target inhibition (PTEN): 6%

sense CAUGAGAAGUAUGACAACA / antisense UGUUGUCAUACUUCUCAUG
target inhibition (GAPDH): 92.4%

sense AUAAAGACAAAGCCAACCG / antisense CGGUUGGCUUUGUCUUUAU
target inhibition (PTEN): 0%

sense GACAACAGCCUCAAGAUCA / antisense UGAUCUUGAGGCUGUUGUC
target inhibition (GAPDH): 94.2%

sense AUCAUGAGAAAGUUAGAAC / antisense GUUCUAACUUUCUCAUGAU
target inhibition (Renilla luciferase): 47.3%

sense AAGUAAGGACCAGAGACAA / antisense UUGUCUCUGGUCCUUACUU
target inhibition (PTEN): 75%

sense UGUUCGACGACGCCAUUGA / antisense UCAAUGGCGUCGUCGAACA
target inhibition [1]: 74%

sense UUUAUGGCGACAUGUUGUG / antisense CACAACAUGUCGCCAUAAA
target inhibition (Renilla luciferase): 29.4%

sense GCGGCGGCGGCACCUCCCG / antisense CGGGAGGUGCCGCCGCCGC
target inhibition (PTEN): 20%

sense CCUGUGAGCAGCCGCGGGG / antisense CCCCGCGGCUGCUCACAGG
target inhibition (PTEN): 25%

sense UCUGUCACCAACUGAAGUG / antisense CACUUCAGUUGGUGACAGA
target inhibition (PTEN): 25%

sense CACUGCCGACCACUCCCAC / antisense GUGGGAGUGGUCGGCAGUG
target inhibition [1]: -10%

sense GAGGCAGCCGUUCGGAGGA / antisense UCCUCCGAACGGCUGCCUC
target inhibition (PTEN): 58%

sense CAAACAUGUGCCAGACAGU / antisense ACUGUCUGGCACAUGUUUG
target inhibition [1]: 88%

sense GGUCCCGUCCGCCUCUCGC / antisense GCGAGAGGCGGACGGGACC
target inhibition (PTEN): 0%

sense AAGUGUAGUAGAUGUGAUU / antisense AAUCACAUCUACUACACUU
target inhibition (Renilla luciferase): 87.9%

sense CCUACACGGUCCUCCUAUA / antisense UAUAGGAGGACCGUGUAGG
target inhibition [1]: 62.4%

sense CCAAAAGGGUCAUCAUCUC / antisense GAGAUGAUGACCCUUUUGG
target inhibition (GAPDH): 93.9%

sense GUCAUCAUCUCUGCCCCCU / antisense AGGGGGCAGAGAUGAUGAC
target inhibition (GAPDH): 69.8%

sense GGGUAAAUACAUUCUUCAU / antisense AUGAAGAAUGUAUUUACCC
target inhibition (PTEN): 70%

sense CAAAUCCAGAGGCUAGCAG / antisense CUGCUAGCCUCUGGAUUUG
target inhibition (PTEN): 44%

sense UCCACAGGGUUUUGACACU / antisense AGUGUCAAAACCCUGUGGA
target inhibition (PTEN): 45%

sense CAGGGGGGAGCCAAAAGGG / antisense CCCUUUUGGCUCCCCCCUG
target inhibition (GAPDH): -24.4%

sense UCUCGGAAGCUGCAGCCAU / antisense AUGGCUGCAGCUUCCGAGA
target inhibition (PTEN): 40%

sense GGGACGAACUGGUGUAAUG / antisense CAUUACACCAGUUCGUCCC
target inhibition (PTEN): 75%

sense GACUGAGACGAUCAUGUUC / antisense GAACAUGAUCGUCUCAGUC
target inhibition [1]: 85%

sense GAAACGGUCCAGGCUAUGU / antisense ACAUAGCCUGGACCGUUUC
target inhibition [1]: 5.96%

sense CUUGACCUAUAUUUAUCCA / antisense UGGAUAAAUAUAGGUCAAG
target inhibition (PTEN): 48%

sense ACCUCAUCAUCUUCCUGGG / antisense CCCAGGAAGAUGAUGAGGU
target inhibition [1]: 49%

sense CUUUGAGCCUGGAGACAUG / antisense CAUGUCUCCAGGCUCAAAG
target inhibition [1]: 79%

sense UGGCCAAGGUCAUCCAUGA / antisense UCAUGGAUGACCUUGGCCA
target inhibition (GAPDH): 91.5%

sense UAAAACACCAUGAAAAUAA / antisense UUAUUUUCAUGGUGUUUUA
target inhibition (PTEN): 58%

sense GUAUGACAACAGCCUCAAG / antisense CUUGAGGCUGUUGUCAUAC
target inhibition (GAPDH): 77.6%

sense AGUACCCAGAUGACUACAG / antisense CUGUAGUCAUCUGGGUACU
target inhibition [1]: 1.85%

sense CAGCAUAUCUUGAACCAUU / antisense AAUGGUUCAAGAUAUGCUG
target inhibition (Renilla luciferase): 83.7%

From the OligoGym collection
